The results in this text go back to US6747061B2, “N-substituted dithiocarbamates for the treatment of biological disorders” (AtheroGenics, Inc., priority 2000, dated 2004).

What all share (type): cell-based
For test [1], the system named is eotaxin. The test can be described thus: Eotaxin assay: enzyme immunoassay of TNF-α and IL-4 induced eotaxin expression in BEAS-2B cells. The settings on record: Homo sapiens, TNF 10 ng/ml + IL-4, approximately 16 hours. The method, then: The eotaxin assay is an enzyme immunoassay to measure tumor necrosis factor alpha (TNF-α) and interleukin-4 (IL-4) induced expression of eotaxin in a human epithelial cell line (BEAS-2B).
BEAS-2B cells purchased from ATCC and maintained in DMEM/F12 plus 10% serum and penicillin plus streptomycin. In a typical experiment, cells were seeded in 96-well plates. The next day cells were stimulated with TNF (10 ng/ml)+IL-4 ([…]) in the presence or absence of compounds dissolved in dimethylsulphoxide (DMSO) in DMEM/F12 plus 1% rabbit serum albumin (RSA). To establish a dose curve for each compound, three concentrations in 2 fold increments were used. Cells were exposed to cytokines and compounds for approximately 16 hours. The next day, the cells were examined under microscope to score for visual signs of toxicity. The culture media was used to measure eotaxin level.
100 μl of anti-human eotaxin monoclonal antibody (3 μg/ml) purchased from R & D Systems was used to coat 96-well plates overnight at room temperature. […] 2N sulphuric acid stopped the color development and data were collected by a microplate reader set at O.D. 450 nm. The results were expressed as the percentage of control sample (cells stimulated by TNF without any compound).

In test [2] the test system is 15-LOX-2. As to the kind of experiment: 15-Lipoxygenase Form-2 assay: immunoblot of TNF-α and IL-4 co-induced 15-LOX-2 expression in NHBE cells. The settings on record: Homo sapiens, TNF-α 10 ng/ml + IL-4 20 ng/ml, 16-20 hours. The protocol: The 15-Lipoxygenase Form-2 (15-LOX-2) Assay is an immunoblot assay to measure tumor necrosis factor alpha (TNF-α) and interleukin-4 (IL-4) co-induced expression of 15-LOX-2 in Normal Human Epithelial Cells.
Normal human bronchial epithelial cells (NHBE) were purchased from Clonetics. They were cultured in BEGM (Clonetics) media without retinoic acid. In a typical experiment, the cells were seeded in 24-well plates. Media was changed to BEGM without retinoic acid (RA) and hydrocortisone (HC) 24 hour before dosing. Cells were then exposed to TNF-α (10 ng/ml) and IL-4 (20 ng/ml) purchased from Boehringer Mannheim in the absence or presence of compounds in fresh BEGM without RA and HC for 16-20 hours at 37° C. To establish a dose curve for each compound, three concentrations in 2 fold increments were used. All compounds were dissolved in DMSO and the final concentration of DMSO was 0.2%.
Cells were washed with cold 1×PBS three times and then lysed by 100 μl of Tris-Glycine SDS sample buffer (NOVEX). Lysates were fractionated by 4-20% gradient SDS-PAGE (NOVEX), transferred onto nitrocellulose filters (MSI) and incubated with the filters in blocking buffer (5% Blotto in 1×Tris buffered saline (TBS)+0.05% Tween 20) for 1 hour with gentle shaking. […]
A general note: A western blot detects proteins with antibodies after separation by electrophoresis.

In test [3] the test system is SNU-C5 colorectal carcinoma cells. The test can be described thus: Anti-proliferative effect on SNU-C5 cells (CellTiter96). The settings on record: read-out: proliferation, percent of control; for activity at 1 µM: NDE 1 μM; for activity at 10 µM: NDE 10 μM; for activity at 100 µM: NDE 100 μM. The protocol: (§1) All primary cells and cell lines were commercially available. The transformed cell lines were grown in Dulbecco's Modified Eagle Media supplemented with 2 mM L-glutamine, 50 I.U. penicillin, 50 μg/ml streptomycin, nonessential amino acids and 10% heat-inactivated fetal bovine serum. HASM, HAEC and NHBE cells were cultured exactly as described by the commercial provider (Clonetics, San Diego, Calif.). All cell lines were grown at 37° C. in 5% CO2, with the media being changed every 48 hours.
(§2) For the experimental assays, cells were plated in 96-well plates and grown until ˜35% confluency was achieved. For the transformed cell lines, cells were plated at low density and grown for 72 hours prior to being stimulated, whereas the non-transformed cells were plated at a higher density and grown for 24 hours prior to being stimulated.
(§3) Cells were treated with dithiocarbamate (0.1-100 μM)±5FU (0.01-10 μM) and retreated after 48 hours when media was changed. Cell growth was assessed using the CellTiter96® assay system from Promega (Madison, Wis.). Each experimental condition was performed in triplicate or quadruplicate, with the number of experiments for each cell line being three.
(§4) Statistical significance was assessed using an ANOVA with the appropriate post-hoc analysis as well as Students t-tests. *=p<0.05 when compared to control-treated (DMSO) cells. #=p<0.05 when compared to 5FU-treated cells.

Test [4] relates to DLD-1 colorectal carcinoma cells. The test can be described thus: Anti-proliferative effect on DLD-1 cells (CellTiter96). The settings on record: Homo sapiens, read-out: proliferation, percent of control; for activity at 1 µM: NDE 1 μM; for activity at 10 µM: NDE 10 μM; for activity at 100 µM: NDE 100 μM. The method, then: as §1, §2, §3, §4

The structures appear in SMILES notation. Read-outs that look alike come from different tables or passages of the source.

For `COC(=O)CCCSC(=S)NCC1CCCO1` (centres unmarked) [NDE, 4-(tetrahydrofuran-2-ylmethylthiocarbamoylsulfanyl)-butyric acid methyl ester], the 50% inhibitory concentration (IC50) (as a rule, the concentration that inhibits the measured activity by half) in test [1] turned out to be 6 µM; in test [2], 4.5 µM. Further, the activity at 1 µM in test [3] (24 HOURS) came to 138 ± 24.2%; in test [3] (48 HOURS) it was 105 ± 7.42%; in test [3] (72 HOURS) it was 127 ± 16.4%; in test [4] (24 HOURS) it was 116 ± 3.72%; in test [4] (48 HOURS) it was 107 ± 7.55%; in test [4] (72 HOURS), 133 ± 10.3%. The activity at 10 µM in test [3] (24 HOURS) stood at 93.4 ± 15.9%; in test [3] (48 HOURS), 70.5 ± 8.42%; in test [3] (72 HOURS) it was 59.2 ± 4.1%; in test [4] (24 HOURS), 97.1 ± 1.79%; in test [4] (48 HOURS) it was 104 ± 13.3%; in test [4] (72 HOURS) it was 142 ± 14.9%. For the same compound, the activity at 100 µM in test [3] (24 HOURS) was 60 ± 10.8%; in test [3] (48 HOURS), 26.3 ± 8.64%; in test [3] (72 HOURS), 13.6 ± 1.31%; in test [4] (24 HOURS) it was 53.8 ± 5.28%; in test [4] (48 HOURS) it was 39.8 ± 6.27%; in test [4] (72 HOURS), 0.27 ± 0.27%.
